Measured values: the supplement of paper PMC10307832

Legend:
Test in all cases: relative viability (nuclei count vs DMSO), 5 days (fraction); higher = more cells survive
[1] = tested on: EMC-BAC-2
Summary of the method: (§1)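 A single step with final 0.05% Triton X-100, 1% formaldehyde and 1 ug/ml Hoechst fixed the cells and stained nuclei 5 days after treatment. Lung cancer cell lines in 1536-well plates had been treated by pin tool the day after seeding with one drug alone or a fixed anchor-drug dose plus five library-drug doses (not always all listed) in √10 steps, and nuclei were counted on 4× images. Relative viability is the ratio of nuclei in treated wells to nuclei in vehicle wells, taken as the median of duplicate plates.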

[2] = tested on: NCI-H23
Summary of the method: as §1

[3] = tested on: NCI-H1915
Summary of the method: as §1

[4] = tested on: HOP-62
Summary of the method: as §1

[5] = tested on: NCI-H460
Summary of the method: as §1

[6] = tested on: CAL-12T
Summary of the method: as §1

[7] = tested on: LCLC-103H
Summary of the method: as §1

[8] = tested on: NCI-H1755
Summary of the method: as §1

[9] = tested on: NCI-H727
Summary of the method: as §1

[10] = tested on: A-427
Summary of the method: as §1

[11] = tested on: NCI-H1792
Summary of the method: as §1

[12] = tested on: HCC-827
Summary of the method: as §1

[13] = tested on: SW 1573
Summary of the method: as §1

[14] = tested on: SK-LU-1
Summary of the method: as §1

[15] = tested on: HARA
Summary of the method: as §1

[16] = tested on: NCI-H2009
Summary of the method: as §1

[17] = tested on: HCC-366
Summary of the method: as §1

[18] = tested on: COR-L 105
Summary of the method: as §1

[19] = tested on: NCI-H2228
Summary of the method: as §1

[20] = tested on: NCI-H1437
Summary of the method: as §1

## O=c1cc(N2CCOCC2)oc2c(-c3cccc4c3sc3ccccc34)cccc12 + CC(C)C[C@H](NC(=O)[C@H](Cc1ccccc1)NC(=O)c1cnccn1)B(O)O [Bortezomib] (partner 0.002 µM)
[1]; first compound 0.01 µM
  relative viability: 1.06
[1]; first compound 0.03162 µM
  relative viability: 1.09
[1]; first compound 0.1 µM
  relative viability: 1.15
[1]; first compound 0.3162 µM
  relative viability: 1.11
[1]; first compound 1 µM
  relative viability: 1.02
[2]; first compound 0.01 µM
  relative viability: 1.13
[2]; first compound 0.03162 µM
  relative viability: 1.08
[2]; first compound 0.3162 µM
  relative viability: 1.01
[2]; first compound 1 µM
  relative viability: 0.946
[3]; first compound 0.01 µM
  relative viability: 0.994
[3]; first compound 0.03162 µM
  relative viability: 1.01
[3]; first compound 0.1 µM
  relative viability: 0.867
[3]; first compound 0.3162 µM
  relative viability: 0.94
[3]; first compound 1 µM
  relative viability: 0.995
[4]; first compound 0.01 µM
  relative viability: 0.497
[4]; first compound 0.03162 µM
  relative viability: 0.565
[4]; first compound 0.1 µM
  relative viability: 0.963
[4]; first compound 0.3162 µM
  relative viability: 0.81
[4]; first compound 1 µM
  relative viability: 0.723
[5]; first compound 0.01 µM
  relative viability: 1.01
[5]; first compound 0.03162 µM
  relative viability: 1.13
[5]; first compound 0.1 µM
  relative viability: 1.3
[5]; first compound 0.3162 µM
  relative viability: 1.06
[5]; first compound 1 µM
  relative viability: 1.07
[6]; first compound 0.01 µM
  relative viability: 0.857
[6]; first compound 0.1 µM
  relative viability: 0.985
[6]; first compound 0.3162 µM
  relative viability: 1.01
[6]; first compound 1 µM
  relative viability: 0.925
[7]; first compound 0.01 µM
  relative viability: 1.16
[7]; first compound 0.03162 µM
  relative viability: 1.04
[7]; first compound 0.1 µM
  relative viability: 0.954
[7]; first compound 0.3162 µM
  relative viability: 1.04
[7]; first compound 1 µM
  relative viability: 0.877
[8]; first compound 0.01 µM
  relative viability: 1.02
[8]; first compound 0.03162 µM
  relative viability: 0.873
[8]; first compound 0.1 µM
  relative viability: 0.959
[8]; first compound 0.3162 µM
  relative viability: 1.03
[8]; first compound 1 µM
  relative viability: 0.977
[9]; first compound 0.01 µM
  relative viability: 0.961
[9]; first compound 0.03162 µM
  relative viability: 0.937
[9]; first compound 0.1 µM
  relative viability: 0.764
[9]; first compound 0.3162 µM
  relative viability: 0.84
[9]; first compound 1 µM
  relative viability: 0.79
[10]; first compound 0.01 µM
  relative viability: 0.991
[10]; first compound 0.03162 µM
  relative viability: 1.04
[10]; first compound 0.1 µM
  relative viability: 1.03
[10]; first compound 0.3162 µM
  relative viability: 0.871
[10]; first compound 1 µM
  relative viability: 1.03
[11]; first compound 0.01 µM
  relative viability: 0.965
[11]; first compound 0.03162 µM
  relative viability: 0.912
[11]; first compound 0.1 µM
  relative viability: 0.965
[11]; first compound 0.3162 µM
  relative viability: 0.938
[11]; first compound 1 µM
  relative viability: 0.955
[12]; first compound 0.01 µM
  relative viability: 1.02
[12]; first compound 0.03162 µM
  relative viability: 0.976
[12]; first compound 0.1 µM
  relative viability: 1.04
[12]; first compound 0.3162 µM
  relative viability: 1.06
[12]; first compound 1 µM
  relative viability: 1.02
[13]; first compound 0.01 µM
  relative viability: 1.32
[13]; first compound 0.03162 µM
  relative viability: 0.985
[13]; first compound 0.1 µM
  relative viability: 1.07
[13]; first compound 0.3162 µM
  relative viability: 1.12
[13]; first compound 1 µM
  relative viability: 0.952
[14]; first compound 0.01 µM
  relative viability: 1.15
[14]; first compound 0.03162 µM
  relative viability: 1.36
[14]; first compound 0.3162 µM
  relative viability: 1.5
[14]; first compound 1 µM
  relative viability: 1.17
[15]; first compound 0.01 µM
  relative viability: 1.16
[15]; first compound 0.03162 µM
  relative viability: 1.17
[15]; first compound 0.1 µM
  relative viability: 1.19
[15]; first compound 0.3162 µM
  relative viability: 1.1
[15]; first compound 1 µM
  relative viability: 1.1
[16]; first compound 0.01 µM
  relative viability: 1.03
[16]; first compound 0.03162 µM
  relative viability: 1.01
[16]; first compound 0.1 µM
  relative viability: 0.89
[16]; first compound 0.3162 µM
  relative viability: 0.967
[16]; first compound 1 µM
  relative viability: 1.01
[17]; first compound 0.01 µM
  relative viability: 1.09
[17]; first compound 0.03162 µM
  relative viability: 1.09
[17]; first compound 0.1 µM
  relative viability: 1.03
[17]; first compound 0.3162 µM
  relative viability: 1.06
[17]; first compound 1 µM
  relative viability: 1.04
[18]; first compound 0.01 µM
  relative viability: 0.793
[18]; first compound 0.03162 µM
  relative viability: 0.793
[18]; first compound 0.1 µM
  relative viability: 0.769
[18]; first compound 0.3162 µM
  relative viability: 0.895
[18]; first compound 1 µM
  relative viability: 0.807
[19]; first compound 0.03162 µM
  relative viability: 0.794
[19]; first compound 0.1 µM
  relative viability: 0.926
[19]; first compound 0.3162 µM
  relative viability: 1.33
[19]; first compound 1 µM
  relative viability: 1.14
[20]; first compound 0.01 µM
  relative viability: 0.493
[20]; first compound 0.03162 µM
  relative viability: 0.515
[20]; first compound 0.1 µM
  relative viability: 0.477
[20]; first compound 0.3162 µM
  relative viability: 0.527
[20]; first compound 1 µM
  relative viability: 0.57
